Target: T1, hGK (Homo sapiens, UniProt P35557)
T1 sequence (P35557 1-465): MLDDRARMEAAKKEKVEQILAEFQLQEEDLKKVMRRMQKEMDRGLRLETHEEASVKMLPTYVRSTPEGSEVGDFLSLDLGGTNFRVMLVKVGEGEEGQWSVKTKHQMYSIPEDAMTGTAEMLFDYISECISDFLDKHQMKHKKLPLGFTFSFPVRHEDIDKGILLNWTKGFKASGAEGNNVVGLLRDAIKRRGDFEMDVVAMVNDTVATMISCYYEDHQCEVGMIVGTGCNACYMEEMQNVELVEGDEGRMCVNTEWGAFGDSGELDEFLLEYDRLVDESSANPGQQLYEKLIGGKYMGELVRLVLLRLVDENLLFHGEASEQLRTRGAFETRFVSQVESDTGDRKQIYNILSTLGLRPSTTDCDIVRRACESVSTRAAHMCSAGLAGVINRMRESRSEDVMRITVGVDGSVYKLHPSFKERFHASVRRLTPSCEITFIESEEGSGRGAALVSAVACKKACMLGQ
Experiment: Glucokinase Activation Screening Assay (coupled enzyme assay with PK/LDH)
Assay type: biochemical
Conditions: 2 mM glucose; for hGK fold activation at 30 μM: fold activation at 30 μM compound
Description: Glucokinase Activation Screening Assay
GK activity (human or rat enzyme) is measured by a coupled enzyme assay using pyruvate kinase (PK) and lactate dehydrogenase (LDH) as coupling enzymes. GK activity is calculated from the decline in NADH monitored photometrically with a microtiter plate (MTP) reader at 340 nm.
For screening purposes, the GK assay is routinely run in a 384-MTP format, in a total volume of 33 μl/well. 10 μl of the ATP-regeneration solution (in HEPES-buffer*, pH 7.0, 6.73 U/ml pyruvate kinase, 6.8 U/ml lactate dehydrogenase) and 10 μl of the glucokinase-/glucose solution (15 μg/ml, 6.6 mM glucose in HEPES-buffer*, pH 7.0; the concentration of the glucose stock-solution was 660 mM in Millipore H2O) were mixed together with […] of a 10% DMSO solution (in HEPES-buffer*, pH 7.0) containing 3.3-fold the amounts of the compounds to achieve final compound concentrations in the range between 1 nM to 30 μM (sometimes 300 μM) in the assay solution (s. below). The solutions were mixed for 5 sec, and after a centrifugation at 243×g for 5 min, the solutions were preincubated for 25 min at room temperature.
The reaction was started by the addition of 10 μl of the NADH-/ATP-solution (4.29 mM NADH, 4.95 mM ATP, in HEPES-buffer*). The MTP was shaken for 5 sec., and then, the absorbance at 340 nm was monitored continuously in a MTP-reader (TECAN Spectro fluor plus) for the next 27 min (with a MTP-cycling time of 199 sec.). The final concentrations of the various components were as follows: 49.5 mM Hepes, pH 7.0, 1.49 mM PEP,1,3 mM NADH, 49.5 mM KCl, 4.96 mM MgCl2, 1.5 mM Mg-ATP, 1.98 mM DTT, 2.04 U/ml pyruvate kinase, 2.06 U/ml lactate-dehydrogenase, 0.91% DMSO, 0.15 μg/well glucokinase, and test compounds in the range between 1 nM and 300 μM.
The change in the optical density (ΔOD340 nm) in the presence of the compound was expressed relative to the ΔOD340 nm, ctrl of the control incubation (in the presence of 2 mM glucose and 0.91% DMSO), taking into account the optical density of the blank sample (incubation in the absence of 2 mM glucose). For the determination of the half maximal effective concentration (EC50), the %-Ctrl-values were plotted in a semi-logarithmic graph against the conc. of the compound of interest. The data points were fitted to a sigmoid curve function (f(x)=((%-Ctrlmax%-Ctrlmin)/(1−(EC50/x**^n(Hill)))+%-Ctrlmin)) by a non-linear regression analysis.
* Hepes-buffer (50 mM Hepes, pH 7.0, 5 mM MgCl2, 50 mM KCl, 1.5 mM PEP, 0.1% BSA). DTT was added to the Hepes-buffer from a 200× stock solution (in Millipore H2O) freshly each day. The final concentration of DTT in the Hepes-buffer is 2 mM.

Row | SMILES | hGK fold activation at 30 μM | EC50
1 | CCCc1cc(C(=O)Nc2nc(CC(=O)O)cs2)cs1 [Example 46, {2-[(5-Propyl-thiophene-3-carbonyl)-amino]-thiazol-4-yl}-acetic acid] | 2.1 | 
2 | CCN(CC)S(=O)(=O)c1cc(C(=O)Nc2nccs2)sc1C [Example 48, 4-Diethylsulfamoyl-5-methyl-thiophene-2-carboxylic acid thiazol-2-ylamide] | 6.4 | 3.9 µM
3 | Cc1sc(C(=O)Nc2nccs2)cc1S(=O)(=O)NCc1ccccc1 [Example 49, 4-Benzylsulfamoyl-5-methyl-thiophene-2-carboxylic acid thiazol-2-ylamide] | 1.3 | 
4 | Cc1sc(C(=O)Nc2nccs2)cc1S(=O)(=O)N(C)C [Example 50, 4-Dimethylsulfamoyl-5-methyl-thiophene-2-carboxylic acid thiazol-2-ylamide] | 2.6 | 3.9 µM

Other lines, results leading:

Row | hGK fold activation at 30 μM | EC50 | SMILES
5 | 2.1 | 10 µM | CCCOc1sc(C(=O)Nc2nccs2)cc1S(C)(=O)=O [Example 52, 4-Methanesulfonyl-5-propoxy-thiophene-2-carboxylic acid thiazol-2-ylamide]
6 | 5.6 | 10 µM | CCCc1cc(C(=O)Nc2nccs2)cs1 [Example 53, 5-Propyl-thiophene-3-carboxylic acid thiazol-2-ylamide]
